Key:
Assay in all cases: Reverse Phase Protein Analysis (RPPA)
Conditions in all cases: % change from DMSO (matched cell line)
Colo205 = assay type: cell-based, human
HCT116 = assay type: cell-based, human
Protocol: (§1) Control wells were treated with DMSO at 0.1% (v/v) for 6 hours prior to cell lysate generation. Samples were then analyzed using reverse-phase protein microarray technology (Theranostics Health).
(§2) Cell lines with common alterations in BRAF and RAS were assayed: BRAF^V600E mutant lines A375, Colo205, and HT29; KRAS^G12C-mutant cell line MIAPACa-2; KRAS^G13D-mutant cell line HCT116; and AN3Ca with atypical HRAS^F82L mutation. Changes in protein levels are shown as a percentage change from dimethyl sulfoxide (DMSO)-treated parental control (FIG. 32A and Table 23).

HT29 = assay type: cell-based
Protocol: as §1, §2

AN3Ca = assay type: cell-based
Protocol: as §1, §2

Cn1nccc1Nc1nccc(-c2ccn([C@H](CO)c3ccc(Cl)c(F)c3)c(=O)c2)n1 [GDC-0994]
Avg (4ebp1 T70) (Colo205): −36.69% | Avg (Akt S473) (Colo205): 4.45% | Avg (Akt) (Colo205): −11.83% | Avg (Bad S136) (Colo205): 4% | Avg (Bad S155) (Colo205): −9.11% | Avg (Bak) (Colo205): 6.58% | Avg (Bax) (Colo205): 8.2% | Avg (Bcl 2) (Colo205): 17.95% | Avg (Bcl2 S70) (Colo205): −9% | Avg (Bcl 2 T56) (Colo205): −4.6% | Avg (Bim) (Colo205): 20.59% | Avg (CREB S133) (Colo205): −11.85% | Avg (Caspase 3 CL D175) (Colo205): 23.06% | Avg (Caspase 7 Cl D198) (Colo205): 1.37% | Avg (Chk1) (Colo205): 5.06% | Avg (Chk1 S345) (Colo205): 6.08% | Avg (Cyclin D1) (Colo205): −28.02% | Avg (ERK 1 2) (Colo205): −3.33% | Avg (ERK 1 2 T202 Y204) (Colo205): 20.01% | Avg (MAK1 S360) (Colo205): 0.82% | Avg (Mcl1) (Colo205): 2.5% | Avg (Raptor S792) (Colo205): −9.04% | Avg (Raptor) (Colo205): −5.48% | Avg (Rictor) (Colo205): −5.04% | Avg (Stat1) (Colo205): 7.26% | Avg (Stat3) (Colo205): −0.86% | Avg (bad S112) (Colo205): −6.12% | Avg (c Fos) (Colo205): −21.33% | Avg (c Myc) (Colo205): −6.22% | Avg (mTOR S2448) (Colo205): −7.36% | Avg (mTOR S2481) (Colo205): 0.96% | Avg (mTOR) (Colo205): 3.39% | Avg (p70 S6 Kinase) (Colo205): 5.83% | Avg (p90 RSK S380) (Colo205): −57.5% | Avg(S6 Ribo Prot S235 236) (Colo205): −91.19% | Avg(S6 Ribo Prot S240 244) (Colo205): −91.59% | Avg(Tuberin TSC2 Y1571) (Colo205): 0.66% | Avg(p70 S6 Kinase S371 S394) (Colo205): −13.02% | Avg(p70 S6 Kinase T389 T412) (Colo205): −32.2% | Avg (4ebp1 T70) (HCT116): 20.5% | Avg (Akt S473) (HCT116): 4.69% | Avg (Akt) (HCT116): −6.13% | Avg (Bad S136) (HCT116): −1.24% | Avg (Bad S155) (HCT116): −19.71% | Avg (Bak) (HCT116): −1.74% | Avg (Bax) (HCT116): −20.11% | Avg (Bcl 2) (HCT116): −4.56% | Avg (Bcl2 S70) (HCT116): −12.53% | Avg (Bcl 2 T56) (HCT116): −11.96% | Avg (Bim) (HCT116): 6.2% | Avg (CREB S133) (HCT116): −8.56% | Avg (Caspase 3 CL D175) (HCT116): −8.36% | Avg (Caspase 7 Cl D198) (HCT116): −13.99% | Avg (Chk1) (HCT116): 2.28% | Avg (Chk1 S345) (HCT116): −18.77% | Avg (Cyclin D1) (HCT116): −63.59% | Avg (ERK 1 2) (HCT116): −1.9% | Avg (ERK 1 2 T202 Y204) (HCT116): 526.64% | Avg (MAK1 S360) (HCT116): −12.93% | Avg (Mcl1) (HCT116): −4.77% | Avg (Raptor S792) (HCT116): −15.77% | Avg (Raptor) (HCT116): −6.2% | Avg (Rictor) (HCT116): −10.98% | Avg (Stat1) (HCT116): −6.32% | Avg (Stat3) (HCT116): −0.25% | Avg (bad S112) (HCT116): −12.36% | Avg (c Fos) (HCT116): −10.36% | Avg (c Myc) (HCT116): −12.03% | Avg (mTOR S2448) (HCT116): −19.33% | Avg (mTOR S2481) (HCT116): −18.34% | Avg (mTOR) (HCT116): −4.85% | Avg (p70 S6 Kinase) (HCT116): −9.9% | Avg (p90 RSK S380) (HCT116): −22.25% | Avg(S6 Ribo Prot S235 236) (HCT116): −94.82% | Avg(S6 Ribo Prot S240 244) (HCT116): −95.1% | Avg(Tuberin TSC2 Y1571) (HCT116): −9.4% | Avg(p70 S6 Kinase S371 S394) (HCT116): −11.47% | Avg(p70 S6 Kinase T389 T412) (HCT116): −24.73% | Avg (4ebp1 T70) (HT29): 1.95% | Avg (Akt S473) (HT29): −10.5% | Avg (Akt) (HT29): −10.01% | Avg (Bad S136) (HT29): 2% | Avg (Bad S155) (HT29): −6.7% | Avg (Bak) (HT29): 3.56% | Avg (Bax) (HT29): 1.1% | Avg (Bcl 2) (HT29): 18.16% | Avg (Bcl2 S70) (HT29): 10.59% | Avg (Bcl 2 T56) (HT29): 1.61% | Avg (Bim) (HT29): 7.74% | Avg (CREB S133) (HT29): 9.54% | Avg (Caspase 3 CL D175) (HT29): −3.44% | Avg (Caspase 7 Cl D198) (HT29): −0.88% | Avg (Chk1) (HT29): 5.68% | Avg (Chk1 S345) (HT29): 6.88% | Avg (Cyclin D1) (HT29): −35.69% | Avg (ERK 1 2) (HT29): 4.66% | Avg (ERK 1 2 T202 Y204) (HT29): 268.99% | Avg (MAK1 S360) (HT29): −0.04% | Avg (Mcl1) (HT29): 3.71% | Avg (Raptor S792) (HT29): −1.75% | Avg (Raptor) (HT29): −6.85% | Avg (Rictor) (HT29): −10.62% | Avg (Stat1) (HT29): 2.58% | Avg (Stat3) (HT29): −3.69% | Avg (bad S112) (HT29): −12.98% | Avg (c Fos) (HT29): −12.92% | Avg (c Myc) (HT29): 7.56% | Avg (mTOR S2448) (HT29): −11.44% | Avg (mTOR S2481) (HT29): 3.23% | Avg (mTOR) (HT29): 10.45% | Avg (p70 S6 Kinase) (HT29): −2.83% | Avg (p90 RSK S380) (HT29): −30.59% | Avg(S6 Ribo Prot S235 236) (HT29): −41.45% | Avg(S6 Ribo Prot S240 244) (HT29): −21.74% | Avg(Tuberin TSC2 Y1571) (HT29): 11.86% | Avg(p70 S6 Kinase S371 S394) (HT29): −25.73% | Avg(p70 S6 Kinase T389 T412) (HT29): −20.86% | Avg (4ebp1 T70) (AN3Ca): 11.28% | Avg (Akt S473) (AN3Ca): 82.37% | Avg (Akt) (AN3Ca): −26.04% | Avg (Bad S136) (AN3Ca): 0.71% | Avg (Bad S155) (AN3Ca): 17.31% | Avg (Bak) (AN3Ca): 7.33% | Avg (Bax) (AN3Ca): 23.83% | Avg (Bcl 2) (AN3Ca): 7.8% | Avg (Bcl2 S70) (AN3Ca): −0.65% | Avg (Bcl 2 T56) (AN3Ca): 1.23% | Avg (Bim) (AN3Ca): −11.63% | Avg (CREB S133) (AN3Ca): 5.03% | Avg (Caspase 3 CL D175) (AN3Ca): 1.55% | Avg (Caspase 7 Cl D198) (AN3Ca): −15.56% | Avg (Chk1) (AN3Ca): 9.43% | Avg (Chk1 S345) (AN3Ca): 15.46% | Avg (Cyclin D1) (AN3Ca): 0.34% | Avg (ERK 1 2) (AN3Ca): −2.87% | Avg (ERK 1 2 T202 Y204) (AN3Ca): 645.51% | Avg (MAK1 S360) (AN3Ca): 6.84% | Avg (Mcl1) (AN3Ca): −4.16% | Avg (Raptor S792) (AN3Ca): 4.85% | Avg (Raptor) (AN3Ca): −8.05% | Avg (Rictor) (AN3Ca): −9.21% | Avg (Stat1) (AN3Ca): 9.15% | Avg (Stat3) (AN3Ca): −13.05% | Avg (bad S112) (AN3Ca): 2.53% | Avg (c Fos) (AN3Ca): −0.63% | Avg (c Myc) (AN3Ca): 3.99% | Avg (mTOR S2448) (AN3Ca): −2.96% | Avg (mTOR S2481) (AN3Ca): 25.42% | Avg (mTOR) (AN3Ca): −2.85% | Avg (p70 S6 Kinase) (AN3Ca): −3.67% | Avg (p90 RSK S380) (AN3Ca): −29.44% | Avg(S6 Ribo Prot S235 236) (AN3Ca): −30.74% | Avg(S6 Ribo Prot S240 244) (AN3Ca): −23.47% | Avg(Tuberin TSC2 Y1571) (AN3Ca): 25.18% | Avg(p70 S6 Kinase S371 S394) (AN3Ca): 29.09% | Avg(p70 S6 Kinase T389 T412) (AN3Ca): 26.01%

— patent US20210038587A1, “METHODS AND COMPOSITIONS FOR TREATING NON-ERK MAPK PATHWAY INHIBITOR-RESISTANT CANCERS” (BIOMED VALLEY DISCOVERIES, INC., priority 2013, published 2021)
